From patent US20150018417A1, “FATTY ACIDS AS ANTI-INFLAMMATORY AGENTS” (University of Pittsburgh - Of the Commonwealth System of …, priority 2012, published 2015)
Values belong to the molecule of their own block, whether it stands above or below them.

How the values were obtained:
RAW264.7 cells = assay: EFAD formation in activated RAW264.7 cells treated with inhibitors; assay type: cell-based, murine
[1] = system: inducible nitric oxide synthase (iNOS); assay: iNOS induction and nitrite accumulation in activated RAW264.7 cells; assay type: cell-based, murine; conditions: RAW264.7 activated with Kdo2 and IFNγ
Protocol: FIG. 11 illustrates modulation of anti-oxidant and inflammatory responses by 17-oxoDHA and 17-oxoDPA. RAW264.7 cells were treated with increasing concentration of 17-oxoDHA and 17-oxoDPA. (a) Cells were harvested 1 h after treatment and Nrf2 levels were quantified in nuclear extracts, (b) Cells were harvested 18 h after treatment and HO—I and Nqol (upper band) levels were measured by western blot, (c, d) RAW264.7 cells were treated with increasing concentration of 17-oxoDHA and 17-oxoDP A for 6 h and Kdo2+IFNγ were added. Samples were collected at 12 h. IL-6, MCP-I and IL-IO levels were measured in the cell media by Quantikine ELISA Kit (R&D Systems) and normalized by the total protein content (c); Nitrite levels were measured in the cell media and normalized by the total protein content and iNOS and Cox-2 levels were measured in total cell lysates (d); (e) PPARγ beta-lactamase reporter assays were performed for Rosiglitazone, 17-OxoDPA, 17-OxoDHA, 15d-PGJ2, 17-hydroxyDHA, DPA, and DHA with concentrations ranging from 0.5-10,000 nM.
For activation experiments RAW 264.7 cells were seeded, incubated overnight, and treated at approximately 80% confluence with the indicated compounds 47. Non-activated controls were treated with vehicle alone. During activation, cells were maintained in an activation medium (SMEM) of Minimum Essential Medium Eagle (Cellgro, 17-305)+2% FBS supplemented with L-glutamine (584 mg/L), Na-pyruvate (110 mg/L) and Hepes (3.57 g/L, pH 7.4). For inhibition studies, inhibitors were added to the medium at the time of activation and MTT assays were used to confirm cell viability. Cells were harvested 20 h post activation (unless otherwise indicated) in 50 mM phosphate buffer (pH 7.4) and snap frozen in liquid N2. […]
Protein concentrations of samples were measured by BCA assay (Pierce). […] Actin (detected by Sigma A2066) was used as loading control. […]
(§1) Total nitrite and nitrate concentration was measured in cell culture media by Griess reaction using the Nitrate/Nitrite Colorimetric Assay Kit (Cayman Chemical).

[2] = system: inducible nitric oxide synthase (iNOS); assay: iNOS induction and nitrite accumulation in bone marrow-derived macrophages; assay type: cell-based, C57BL/6 mice; conditions: BMDMs activated with Kdo2 and IFNγ
Protocol: FIG. 24 illustrates that 17-oxoDHA and 7-oxoDPA modulate the inflammatory response. in bone marrow-derived macrophages. Cells were treated with increasing concentration of 17-oxoDHA and 17oxoDPA for 6 h and Kdo2 Lipid A (0.5 μg/ml) and IFNγ were added. Samples were collected at 12 h. (2) Nitrite levels were measured in the cell media and normalized to the total protein content: iNOS and COX-2 levels were measured in total cell lystaes. (b) IL-6, MCP-I, and IL-10 levels were measured in cell media and normalized to the total protein content.
(§2) Bone marrow derived macrophages were isolated from C57BL/6 mice according to the protocol developed by Davies. See Davies, J. Q. & Gordon, S. Isolation and culture of murine macrophages. Methods Mol Biol 290, 91-103 (2005).
Protein concentrations of samples were measured by BCA assay (Pierce). The following primary antibodies were used: Nrf2 (Santa Cruz, sc-722), HO—I (Assay Design, SPA-896), Nqol (Abeam, ab34173), Cox-2 (Santa Cruz, sc-1745), iNOS (BD Transduction Lab, 610332), Lamin Bl (Abeam, ab16048). Actin (detected by Sigma A2066) was used as loading control. Secondary antibodies were purchased from Santa Cruz Biotechnology.
as §1

NF-κB and Stat-1 = assay: p65 nuclear translocation and DNA binding, Stat1 phosphorylation; assay type: cell-based, murine; conditions: RAW264.7
Source text: The expression of iNOS and the analyzed pro-inflammatory cytokines is dependent on the activity of NF-κB and Stat-1. It has been reported that electrophilic lipids can repress the activation of these transcriptional factors either by direct adduction to the DNA binding domain of the NF-K B subunit p65 and to the inhibitor IκBα or via indirect mechanisms.

GAPDH = GAPDH (Oryctolagus cuniculus, UniProt P46406); assay: In vitro alkylation of GAPDH, mass spectrometric analysis; assay type: biochemical, rabbit
Source text: FIG. 21 illustrates the mass spectrometric analysis of an in vitro reaction of GAPDHvith EFAD-2. Four residues were detected and confirmed-as being targets for EfAD-2 in treated rabbit GAPDH. The peptides were alkylated as Cys244 (a), His163 (b), Cys149 (c) and His328 (d). Upper panels show EFAD-2 modified peptides and lower panels show spectra from corresponding native peptide.
To more specifically test the binding of EFADs to nucleophilic residues in proteins, we tested whether GAPDH was alkylated by EFADs. This enzyme is a well-characterized target for electrophiles and becomes easily inactivated by nitrosylation, oxidation or nucleophilic addition.

[3] = system: bone marrow-derived macrophage (BMDM) cells; assay: EFAD formation in activated bone marrow-derived macrophages; assay type: cell-based, C57BL/6 murine; conditions: BMDM activated with Kdo2 and IFNγ
Protocol: FIG. 8 illustrates formation of EFAD in activated primary murine macrophages. Bone marrow derived macrophages were activated with Kdo2 (0.5 μg/ml) and IFNγ (200 U/ml) and EFADs were detected 1O h post activation.
as §2
EFADs are produced by primary macrophages isolated from mouse bone marrow. […] Thus, C57BL/6 murine primary hematopoietic stem cells were differentiated to macrophages, activated with Kdo2 and IFNγ and analyzed for the formation of EFADs. Five out of the six EFAD species (EFAD-I, 2, -3, -5 and -6) were observed which co-eluted with those produced by RAW 264.7 cells and with the available standards.

Purified ovine COX-2 = biological target: T1, Purified ovine COX-2 (Ovis aries, UniProt P79208); assay: COX-2 reaction with DPA ± ASA, OH-DPA formation; assay type: biochemical; conditions: ovine COX-2 + DPA 10 μM ± 2 mM ASA
T1 construct: Ovine placental COX-2 (Cayman 60120) was also from Cayman Chemicals; purchased Cayman Chemicals 60120; host or cells: ovine placenta
T1 sequence (P79208 17-603): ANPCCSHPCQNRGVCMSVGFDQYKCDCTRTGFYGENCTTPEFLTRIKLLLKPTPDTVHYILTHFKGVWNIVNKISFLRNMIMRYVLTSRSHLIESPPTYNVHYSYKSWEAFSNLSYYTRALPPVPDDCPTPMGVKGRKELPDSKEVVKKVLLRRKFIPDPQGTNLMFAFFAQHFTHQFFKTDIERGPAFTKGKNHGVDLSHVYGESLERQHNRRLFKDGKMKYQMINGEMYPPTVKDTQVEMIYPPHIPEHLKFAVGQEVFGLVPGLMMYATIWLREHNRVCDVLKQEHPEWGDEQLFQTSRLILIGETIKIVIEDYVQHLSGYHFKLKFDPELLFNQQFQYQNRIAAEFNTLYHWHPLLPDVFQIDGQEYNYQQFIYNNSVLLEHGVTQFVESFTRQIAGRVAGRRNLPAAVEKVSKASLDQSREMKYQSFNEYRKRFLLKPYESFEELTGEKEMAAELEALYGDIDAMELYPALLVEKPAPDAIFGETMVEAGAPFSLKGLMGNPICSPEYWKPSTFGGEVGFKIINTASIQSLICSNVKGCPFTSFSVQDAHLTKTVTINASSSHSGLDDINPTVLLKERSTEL
Protocol: The results of the COX-2 inhibition study implicate a the involvement of COX-2 in EFAD formation and motivated the development of an in vitro model of enzymatic EFAD synthesis. Purified ovine COX-2 was used to generate the EFAD-2 precursor (OH-DPA), (FIG. 7c-e), while the EFAD-I precursor, hydroxy-DHA (OH-DHA), was produced from DHA by COX-2 (FIGS. 19a and 19b).
Ovine placental COX-2 (20 U/ml) was preincubated in Tris/heme/phenol (THP) buffer ±2 mM ASA at 37° C. THP buffer, freshly prepared before each reaction, consisted of Tris*C1 (100 mM, pH 8.1), hematin (1 μM), and phenol (1 μM). The reaction was initiated by addition of the indicated fatty acids at a concentration of 10 μM. Reactions were terminated at the indicated time points by addition of ice-cold acetonitrile (9× reaction volume) and COX-2 protein was removed by centrifugation. Product formation was monitored by RP-HPLC-MS/MS in multiple reaction monitoring (MRM) mode following the loss Of CO2 (m/z 345/301 and m/z 343/299 for OH-DPA and OH-DHA, respectively).

Sequence of GAPDH (P46406 whole entry): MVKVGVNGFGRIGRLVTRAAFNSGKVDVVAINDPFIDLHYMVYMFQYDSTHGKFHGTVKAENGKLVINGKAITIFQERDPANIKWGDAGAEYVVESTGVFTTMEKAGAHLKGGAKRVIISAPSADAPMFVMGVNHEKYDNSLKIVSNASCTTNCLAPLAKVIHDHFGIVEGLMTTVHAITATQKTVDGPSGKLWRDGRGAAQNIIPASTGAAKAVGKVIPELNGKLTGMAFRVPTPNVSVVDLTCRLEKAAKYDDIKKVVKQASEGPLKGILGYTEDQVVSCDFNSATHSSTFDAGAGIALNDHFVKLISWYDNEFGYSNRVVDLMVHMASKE

p65 nuclear translocation and DNA binding, Stat1 phosphorylation (NF-κB and Stat-1): did not affect
SMILES: CCC=CCC=CC=CC(=O)CC=CCC=CCCCCCC(=O)O (mixture of isomers) [EFAD-2]
EFAD level +Celecoxib (↓COX) (RAW264.7 cells; RAW264.7 activated with Kdo2 and IFNγ, 20 h post activation): ↓
EFAD level +Aspirin (↓COX) (RAW264.7 cells; RAW264.7 activated with Kdo2 and IFNγ, ASA 200 μM, 20 h post activation): ↑
EFAD level +ETYA (↓COX) (RAW264.7 cells; RAW264.7 activated with Kdo2 and IFNγ, ETYA 25 μM, 20 h post activation): ↓
EFAD level +MAFP (↓PLA2) (RAW264.7 cells; RAW264.7 activated with Kdo2 and IFNγ, MAFP 25 μM, 20 h post activation): ↓
EFAD level +Diclofenac (↓COX) (RAW264.7 cells; RAW264.7 activated with Kdo2 and IFNγ, diclofenac 1 μM, 20 h post activation): ↓
EFAD level +Genisteine (RAW264.7 cells; RAW264.7 activated with Kdo2 and IFNγ, genistein 25 μM, 20 h post activation): ↓
EFAD level +Ibuprofen (↓COX) (RAW264.7 cells; RAW264.7 activated with Kdo2 and IFNγ, ibuprofen 100 μM, 20 h post activation): ↓
EFAD level +Indomethacin (↓COX) (RAW264.7 cells; RAW264.7 activated with Kdo2 and IFNγ, indomethacin 25 μM, 20 h post activation): ↓
iNOS induction and accumulation of nitrite in the cell media [1]: strongly and dose-dependently repressed
iNOS induction and accumulation of nitrite in the cell media [2]: strongly and dose-dependently repressed
adduct formation with GAPDH residues (GAPDH): readily formed adducts with Cys244, Cys149, His 163 and His328

SMILES: CC(=O)Oc1ccccc1C(=O)O [ASA, acetyl salicylic acid]
increase of EFAD formation (RAW264.7 cells; ASA 200 μM, all EFADs except EFAD-4 and EFAD-6): about 2.5 fold
extent of EFAD formation with ASA [3]: increased about two to three fold
rate and extent of formation of OH-DPA (Purified ovine COX-2): increased the rate and extent of formation
